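The compound was tested at five concentrations on cells cultured in 96-well plates, with a 48-hour exposure period. Abbreviation: GI50, concentration required for 50% inhibition of growth.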 Calls of active or inactive are those of the source. Cut-off read from the data, not from the text of the source: active = GI50 up to about 1.1 µM and inactive = higher. Numbered stars: 1 amine (or outer) side, 2 acyl side, 3 side chain; on linkers, the order of the positions; unused ones are H or OH. Square brackets hold non-standard residues; d marks the D form. Peptide text beside a SMILES is read from it. X55 = CC[C@H](C)[C@H](OC(=O)[C@@H](C)[C@@H](CC)N[*:1])C(=O)[*:2]; X31 = C[C@H](N[*:1])C(=O)C(C)(C)C(=O)[*:2]; NMeY = CN[C@@H](Cc1ccc(O)cc1)C(=O)O; NMeL = CN[C@@H](CC(C)C)C(=O)O; NMeV = CN[C@H](C(=O)O)C(C)C
Key:
Experiment in all cases: growth of human tumour cells (NCI), 48 h
A498 = system: A498
A549 = system: A549
DU-145 = system: DU-145
HL-60 = system: HL-60
HOP-62 = system: HOP-62
HOP-92 = system: HOP-92
IGROV-1 = system: IGROV-1
KM12 = system: KM12
MDA-MB-231 = system: MDA-MB-231
NCI-H226 = system: NCI-H226
NCI-H23 = system: NCI-H23
NCI-H522 = system: NCI-H522
OVCAR-3 = system: OVCAR-3
OVCAR-5 = system: OVCAR-5
RPMI-8226 = system: RPMI-8226
SF-268 = system: SF-268
SK-MEL-5 = system: SK-MEL-5
SNB-75 = system: SNB-75
SW-620 = system: SW-620
UACC-62 = system: UACC-62

Measured: GI50

Brc1ccccc1/C=C\C1(c2ccccc2)OCCO1
inactive: A498 12.9 µM | A549 16 µM | DU-145 13.7 µM | HL-60 24.7 µM | HOP-62 14.5 µM | HOP-92 23.3 µM | IGROV-1 13.6 µM | KM12 2.34 µM | MDA-MB-231 9.27 µM | NCI-H226 18.3 µM | NCI-H23 7.29 µM | NCI-H522 8.11 µM | OVCAR-3 12.7 µM | OVCAR-5 15.3 µM | SF-268 4.98 µM | SK-MEL-5 15.2 µM | SNB-75 15 µM | SW-620 5.47 µM | UACC-62 14.7 µM
active: RPMI-8226 1.01 µM

CC[C@H](C)[C@@H]1OC(=O)[C@@H](C)[C@@H](CC)NC(=O)[C@H](C)NC(=O)C(C)(C)C(=O)[C@H](C)NC(=O)[C@H](Cc2ccc(OC)cc2)N(C)C(=O)[C@H](C(C)C)N(C)C(=O)CNC(=O)[C@H](CC(C)C)N(C)C(=O)CNC1=O [DOLASTATIN 11] (cyclo(A[X55]G[NMeL]G[NMeV][NMeY](Me)[X31]))
active: A498 0.118 µM | A549 0.0175 µM | DU-145 0.118 µM | HL-60 0.0117 µM | HOP-62 0.0497 µM | HOP-92 0.0752 µM | IGROV-1 0.0355 µM | KM12 0.4 µM | MDA-MB-231 0.0632 µM | NCI-H226 0.137 µM | NCI-H23 0.071 µM | NCI-H522 0.00607 µM | OVCAR-3 0.0413 µM | OVCAR-5 0.9 µM | RPMI-8226 0.115 µM | SF-268 0.082 µM | SK-MEL-5 0.0247 µM | SNB-75 0.0847 µM | SW-620 0.286 µM | UACC-62 0.0893 µM

c1ccc2c(c1)Sc1ccccc1N2CC1CN2CCC1CC2 (stereo not given) [MEQUITAZINE]
inactive: A498 11.7 µM | A549 9.71 µM | DU-145 6.73 µM | HL-60 3.57 µM | HOP-62 13.4 µM | HOP-92 11 µM | IGROV-1 11.2 µM | KM12 5.08 µM | MDA-MB-231 3.8 µM | NCI-H226 14.5 µM | NCI-H23 13 µM | NCI-H522 4.82 µM | OVCAR-3 3.97 µM | OVCAR-5 11.7 µM | RPMI-8226 2.99 µM | SF-268 7.36 µM | SK-MEL-5 3.2 µM | SNB-75 1.75 µM | SW-620 3.58 µM | UACC-62 3.13 µM

Reference: ChEMBL document CHEMBL1201862, “PubChem BioAssay data set” (2004)
